Laboratory results taken from ChEMBL document CHEMBL6087419, “Structural insights into tryptamine psychedelics: The role of hydroxyl indole ring site in 5-HT2A receptor activation and psychedelic-like activity” (Eur J Med Chem, 2025).
Active and inactive are the calls of the source. The calls are words filed in the database; no cut-off is given here.

How the values were obtained:
Mus musculus [1] = experiment: Psychedelic like activity in male BALB/c mouse assessed as induction of head-twitch responses at 1 mg/kg, ip measured after 30 mins by video recording analysis; type: functional, organism-based
Mus musculus [2] = experiment: Psychedelic like activity in male BALB/c mouse assessed as induction of head-twitch responses administered intraperitoneally and measured after 30 mins by video recording analysis; type: functional; details: 0.5 h, route ip
Mus musculus [3] = experiment: Psychedelic like activity in male BALB/c mouse assessed as induction of head-twitch responses at 3 to 10 mg/kg, ip measured after 30 mins by video recording analysis; type: functional, organism-based; details: dose 3-10 mg/kg

Row | SMILES | Activity (Mus musculus [1]) | ED50 (Mus musculus [2]) [mg/kg] | Activity (Mus musculus [3])
1 | CN(C)CCc1c[nH]c2c(O)cccc12 | inactive |  | 
2 | CN(C)CCc1c[nH]c2cc(O)ccc12 | inactive |  | 
3 | CN(C)CCc1c[nH]c2ccc(O)cc12 | Active |  | 
4 | CN(C)CCc1c[nH]c2cccc(O)c12 [PSILOCIN] | Active | 0.86 | inactive
